For this assay, the system named is BDF1 mice, B16 melanoma ip, median survival T/C. In words: NCI In Vivo Anticancer Drug Screen. Data for tumor model B16 Melanoma (intraperitoneal) in B6D2F1 (BDF1) mice. The settings on record: endpoint: median survival time, higher = longer survival. The procedure, abridged:
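Antitumor activity is assessed in mice bearing a transplanted tumor, with survival or tumor size compared against vehicle-dosed controls and expressed as T/C.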

[1] abbreviates: dose: 100.0 mg/kg/injection, schedule: Q01DX009 (ip), vehicle: saline with Tween-80.
Setting [2] is: dose: 200.0 mg/kg/injection, schedule: Q01DX009 (ip), vehicle: saline with Tween-80.
Where [3] appears, read: dose: 400.0 mg/kg/injection, schedule: Q01DX009 (ip), vehicle: saline with Tween-80.
Where [4] appears, read: dose: 12.5 mg/kg/injection, schedule: Q01DX009 (ip), vehicle: Klucel (hydroxypropylcellulose) (HPC).
Setting [5] is: dose: 25.0 mg/kg/injection, schedule: Q01DX009 (ip), vehicle: saline.
[6] abbreviates: dose: 50.0 mg/kg/injection, schedule: Q01DX009 (ip), vehicle: saline.
[7] abbreviates: dose: 100.0 mg/kg/injection, schedule: Q01DX009 (ip), vehicle: saline.
Where [8] appears, read: dose: 25.0 mg/kg/injection, schedule: Q01DX009 (ip), vehicle: Klucel (hydroxypropylcellulose) (HPC).
[9] abbreviates: dose: 25.0 mg/kg/injection, schedule: Q01DX009 (ip), vehicle: saline with Tween-80.
The mark [10] stands for this setting: dose: 50.0 mg/kg/injection, schedule: Q01DX009 (ip), vehicle: Klucel (hydroxypropylcellulose) (HPC).
The mark [11] stands for this setting: dose: 50.0 mg/kg/injection, schedule: Q01DX009 (ip), vehicle: saline with Tween-80.
[12] abbreviates: dose: 100.0 mg/kg/injection, schedule: Q01DX009 (ip), vehicle: Klucel (hydroxypropylcellulose) (HPC).
The mark [13] stands for this setting: dose: 200.0 mg/kg/injection, schedule: Q01DX009 (ip), vehicle: Klucel (hydroxypropylcellulose) (HPC).
Setting [14] is: dose: 400.0 mg/kg/injection, schedule: Q01DX009 (ip), vehicle: Klucel (hydroxypropylcellulose) (HPC).

Molecules are shown by their SMILES. “And” between values parts separate entries of the source, which are not always exact repeats. Identical values can stand only once. Toxic doses and inconclusive results are not listed. Peptide text beside a SMILES is read from it. * marks the point of attachment. Cbz = O=C(OCc1ccccc1)*

The record followed here is PubChem BioAssay AID192 (DTP/NCI, 2004).

As to `CCCCNC(C)C1(O)Cc2c(O)c3c(c(O)c2C(OC2CC(N)C(O)C(C)O2)C1)C(=O)c1c(OC)cccc1C3=O` (stereo not drawn), the T/C was 114 % of control and 181 % of control and 204 % of control (dose: 50.0 mg/kg/injection, schedule: Q01DX001 (ip), vehicle: water); 114 % of control and 263 % of control and 292 % of control (dose: 100.0 mg/kg/injection, schedule: Q01DX001 (ip), vehicle: water); 117 % of control and 217 % of control and 293 % of control (dose: 200.0 mg/kg/injection, schedule: Q01DX001 (ip), vehicle: water); 89 % of control (dose: 400.0 mg/kg/injection, schedule: Q01DX001 (ip), vehicle: water).

With `NC1c2cc(Cl)ccc2-c2c(Cl)cc(Cl)cc21` (stereo not drawn), the T/C is, setting by setting: under setting [1], 109 % of control; under setting [2], 111 % of control; under setting [3], 102 % of control.

As to `O=C1CC(NC(=O)OCc2ccccc2)C(=O)O1` (stereo not drawn), the T/C (dose: 100.0 mg/kg/injection, schedule: Q01DX009 (ip), vehicle: alcohol) is 111 % of control and the T/C (dose: 200.0 mg/kg/injection, schedule: Q01DX009 (ip), vehicle: alcohol) was 94 % of control.

Regarding `N#CSc1ccc(S(N)(=O)=O)cc1`, the T/C reads like this: (dose: 6.25 mg/kg/injection, schedule: Q01DX009 (ip), vehicle: Klucel (hydroxypropylcellulose) (HPC)) 100 % of control; under setting [4], 103 % of control.

Turning to `CCCCCCCCCCCCCCCCCC[n+]1cccc(C(=O)N2CCOCC2)c1`, the T/C was 92 % of control (dose: 2.0 mg/kg/injection, schedule: Q01DX009 (ip), vehicle: saline sonified); 100 % of control (dose: 4.0 mg/kg/injection, schedule: Q01DX009 (ip), vehicle: saline sonified); 92 % of control (dose: 8.0 mg/kg/injection, schedule: Q01DX009 (ip), vehicle: saline sonified); 92 % of control (dose: 16.0 mg/kg/injection, schedule: Q01DX009 (ip), vehicle: saline sonified).

Take `Cc1cc2c(cc1C)C(=O)c1ccccc1C2=O`: the T/C runs as follows: under setting [5], 91 % of control; under setting [6], 97 % of control; under setting [7], 94 % of control.

Regarding `c1ccc(CSC2=NCCS2)cc1`, the T/C under setting [1] is 102 % of control, the T/C under setting [2] is 105 % of control and the T/C under setting [3] was 97 % of control.

For `CCCn1c(=S)[nH]c2ccccc2c1=O`, the T/C is 120 % of control under setting [8]; 100 % of control under setting [9]; 100 % of control under setting [10]; 92 % of control under setting [11]; 100 % of control (dose: 66.0 mg/kg/injection, schedule: Q01DX009 (ip), vehicle: saline with Tween-80); 86 % of control and 102 % of control under setting [12]. Besides, the T/C reads like this: under setting [1], 87 % of control and 94 % of control; (dose: 150.0 mg/kg/injection, schedule: Q01DX009 (ip), vehicle: saline with Tween-80) 86 % of control.

Turning to `O=C1NC(c2ccccc2Cl)Nc2ccccc21` (stereo not drawn), the T/C is, setting by setting: under setting [10], 103 % of control; under setting [12], 98 % of control; under setting [13], 98 % of control; under setting [14], 108 % of control.

Consider `N=C(N)SCc1cccc([N+](=O)[O-])c1`, for which the T/C by setting is: under setting [4], 93 % of control; under setting [8], 103 % of control; under setting [10], 97 % of control.

Take `CC1(C)CCSC(/C=C/c2ccccc2)=N1`: the T/C reads like this: under setting [10], 96 % of control; under setting [12], 94 % of control; under setting [13], 91 % of control.

Consider `COc1ccc2c(c1OC)C13CCCCC1C(C2)[N+](C)(C)CC3` (stereo not drawn), for which the T/C reads like this: (dose: 0.02 mg/kg/injection, schedule: Q01DX009 (ip), vehicle: Klucel (hydroxypropylcellulose) (HPC)) 91 % of control; (dose: 0.04 mg/kg/injection, schedule: Q01DX009 (ip), vehicle: Klucel (hydroxypropylcellulose) (HPC)) 89 % of control; (dose: 0.78 mg/kg/injection, schedule: Q01DX009 (ip), vehicle: Klucel (hydroxypropylcellulose) (HPC)) 87 % of control; (dose: 3.12 mg/kg/injection, schedule: Q01DX009 (ip), vehicle: Klucel (hydroxypropylcellulose) (HPC)) 86 % of control.

For the compound `CCCCCCCCSSCCCCCCCC`, the T/C was 108 % of control under setting [1], 101 % of control under setting [2] and 98 % of control under setting [3].

`CNCCN(C)Cc1ccccc1`: the T/C runs as follows: under setting [5], 97 % of control; under setting [6], 94 % of control; under setting [7], 89 % of control.

As for `COc1ccc(NC(=O)Nc2ccc(Br)cc2)cc1`, the T/C reads like this: under setting [9], 98 % of control; under setting [11], 92 % of control; under setting [1], 89 % of control and 95 % of control.

Regarding `C=COC(=O)CCCCCCCCCCCCCCCCC`, the T/C was 94 % of control (dose: 20.0 mg/kg/injection, schedule: Q01DX009 (ip), vehicle: Klucel (hydroxypropylcellulose) (HPC)); 94 % of control (dose: 40.0 mg/kg/injection, schedule: Q01DX009 (ip), vehicle: Klucel (hydroxypropylcellulose) (HPC)); 92 % of control (dose: 80.0 mg/kg/injection, schedule: Q01DX009 (ip), vehicle: Klucel (hydroxypropylcellulose) (HPC)).

On to `CCC[CH2][Sn]1([CH2]CCC)[S]CC[N]1S(=O)(=O)c1ccc(C)cc1`, for which the T/C is 95 % of control (dose: 6.0 mg/kg/injection, schedule: Q01DX009 (ip), vehicle: saline with Tween-80) and 108 % of control (dose: 12.5 mg/kg/injection, schedule: Q01DX009 (ip), vehicle: saline with Tween-80).

As for `CCCN(CCC)CCCCCCO`, the T/C under setting [11] was 102 % of control, the T/C under setting [1] is 102 % of control and the T/C under setting [2] is 99 % of control.

Take `c1ccc([P+](c2ccccc2)(c2ccccc2)c2ccccc2)cc1`: the T/C was 102 % of control (dose: 0.13 mg/kg/injection, schedule: Q01DX009 (ip), vehicle: saline); 102 % of control (dose: 0.2 mg/kg/injection, schedule: Q01DX009 (ip), vehicle: saline); 102 % of control (dose: 0.3 mg/kg/injection, schedule: Q01DX009 (ip), vehicle: saline); 113 % of control (dose: 0.44 mg/kg/injection, schedule: Q01DX009 (ip), vehicle: saline); 100 % of control (dose: 0.63 mg/kg/injection, schedule: Q04DX003 (ip), vehicle: saline); 110 % of control (dose: 0.66 mg/kg/injection, schedule: Q01DX009 (ip), vehicle: saline). For the same compound, the T/C (dose: 1.0 mg/kg/injection, schedule: Q01DX009 (ip), vehicle: saline) is 113 % of control; the T/C (dose: 1.25 mg/kg/injection, schedule: Q01DX009 (ip), vehicle: saline with Tween-80) is 97 % of control; the T/C (dose: 1.25 mg/kg/injection, schedule: Q04DX003 (ip), vehicle: saline) was 100 % of control; the T/C (dose: 1.5 mg/kg/injection, schedule: Q01DX009 (ip), vehicle: saline) is 113 % of control; the T/C (dose: 2.5 mg/kg/injection, schedule: Q01DX009 (ip), vehicle: saline with Tween-80) is 104 % of control; the T/C (dose: 2.5 mg/kg/injection, schedule: Q04DX003 (ip), vehicle: saline) was 102 % of control. The T/C was 111 % of control (dose: 5.0 mg/kg/injection, schedule: Q01DX009 (ip), vehicle: saline with Tween-80) and 89 % of control (dose: 5.0 mg/kg/injection, schedule: Q04DX003 (ip), vehicle: saline).

As for `c1cc[c]([Pb]([c]2ccccc2)([c]2ccccc2)[n]2ccc3ccccc32)cc1`, the T/C is, setting by setting: (dose: 2.08 mg/kg/injection, schedule: Q01DX009 (ip), vehicle: saline with Tween-80) 102 % of control; (dose: 3.12 mg/kg/injection, schedule: Q01DX009 (ip), vehicle: saline with Tween-80) 97 % of control.

As to `Cc1cc2nc(-c3ccccc3)c(-c3ccccc3)nc2cc1C`, the T/C was 102 % of control under setting [1], 100 % of control under setting [2] and 91 % of control under setting [3].

In the case of `O=C(Nc1ccccc1)c1ccc(C(F)(F)F)cc1O`, the T/C by setting is: under setting [8], 95 % of control; under setting [10], 95 % of control.

For `CC(C)CC(NC(=O)C(Cc1ccccc1)NC(=O)OCc1ccccc1)C(=O)O` (stereo not drawn) (Cbz-Phe-Leu-OH; configuration not given here), the T/C runs as follows: under setting [9], 92 % of control; under setting [11], 93 % of control; under setting [1], 90 % of control; under setting [2], 87 % of control.

Consider `O=C1CC2(C(=O)N1CN1CCOCC1)c1ccccc1-c1ccccc12`, for which the T/C was 103 % of control under setting [8]; 98 % of control under setting [10]; 98 % of control under setting [12]; 107 % of control under setting [13]; 115 % of control under setting [14].

With `O=C(Nc1cccc(Cl)c1)Nc1cc(Cl)ccc1Cl`, the T/C is 100 % of control under setting [1], 89 % of control under setting [2] and 86 % of control under setting [3].
